The source of these data is patent EP4467141A1, “PYRAZOLO-QUINOLINES AS SELECTIVE INHIBITORS OF GENOTOXIC STRESS-INDUCED IKK/NF- KB PATHWAYS FOR CANCER THERAPY” (Max-Delbrück-Centrum für Molekulare Medizin in der …, priority 2023, dated 2024).

What is called inhibition is the relative decrease from the control value, in per cent.

Common to all, as to assay: Kinase panel study
Holding throughout (assay type): biochemical
Settings in all cases: read-out: Percentage of inhibition; for inhibition at 1 µM: 1000nM; for inhibition at 10 µM: 10000nM

The target of one assay is T1, PRKCE (PKC epsilon) (Homo sapiens, UniProt Q02156).
T1 construct: purchased Thermo Fisher Scientific
T1 sequence (Q02156 1-737): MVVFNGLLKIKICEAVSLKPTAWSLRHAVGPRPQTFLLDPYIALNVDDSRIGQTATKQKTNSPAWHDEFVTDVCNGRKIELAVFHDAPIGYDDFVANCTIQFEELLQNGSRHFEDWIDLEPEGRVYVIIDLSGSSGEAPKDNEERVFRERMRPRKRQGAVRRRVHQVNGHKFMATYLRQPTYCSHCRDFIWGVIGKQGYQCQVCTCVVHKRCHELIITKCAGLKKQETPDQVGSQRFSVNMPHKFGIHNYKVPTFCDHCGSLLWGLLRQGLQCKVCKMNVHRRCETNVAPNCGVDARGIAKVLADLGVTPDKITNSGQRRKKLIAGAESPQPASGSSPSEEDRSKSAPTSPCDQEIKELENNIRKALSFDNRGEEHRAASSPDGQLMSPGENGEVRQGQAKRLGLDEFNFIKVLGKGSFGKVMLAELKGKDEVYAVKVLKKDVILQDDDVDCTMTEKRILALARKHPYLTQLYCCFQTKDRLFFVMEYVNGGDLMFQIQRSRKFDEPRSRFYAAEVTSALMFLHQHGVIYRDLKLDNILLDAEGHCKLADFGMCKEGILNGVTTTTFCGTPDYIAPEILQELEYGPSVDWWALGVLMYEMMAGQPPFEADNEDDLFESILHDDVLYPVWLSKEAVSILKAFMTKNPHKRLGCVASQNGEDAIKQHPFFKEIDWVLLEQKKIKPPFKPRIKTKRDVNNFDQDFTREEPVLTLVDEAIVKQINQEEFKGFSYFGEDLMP
The method in brief:
(§1)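 Single-point inhibition data at 10 µM or 1 µM compound are shown. They were generated in ZLyte- or Adapta-format biochemical assays performed externally under standard conditions.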

A further assay addresses T2, PRKCA (PKC alpha) (Homo sapiens, UniProt P17252).
T2 construct: purchased Thermo Fisher Scientific
In outline: as §1

In another assay the target is T3, DAPK3 (ZIPK) (Homo sapiens, UniProt O43293).
T3 construct: purchased Thermo Fisher Scientific
T3 sequence (O43293 whole entry): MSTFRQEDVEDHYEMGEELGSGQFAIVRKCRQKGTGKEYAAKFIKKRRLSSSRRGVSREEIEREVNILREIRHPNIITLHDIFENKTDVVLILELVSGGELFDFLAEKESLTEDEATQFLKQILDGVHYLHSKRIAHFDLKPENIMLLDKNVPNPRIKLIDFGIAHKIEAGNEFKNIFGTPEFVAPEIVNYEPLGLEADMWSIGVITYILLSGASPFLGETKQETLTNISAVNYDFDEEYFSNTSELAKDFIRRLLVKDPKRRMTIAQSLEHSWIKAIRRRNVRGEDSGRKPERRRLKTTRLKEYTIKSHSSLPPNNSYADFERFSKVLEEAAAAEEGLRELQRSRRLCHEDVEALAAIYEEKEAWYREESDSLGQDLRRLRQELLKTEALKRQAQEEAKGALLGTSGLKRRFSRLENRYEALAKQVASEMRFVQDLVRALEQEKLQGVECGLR
In outline: as §1

The target in a further assay is T4, TYRO3 (RSE) (Homo sapiens, UniProt Q06418).
T4 construct: purchased Thermo Fisher Scientific
T4 sequence (Q06418 41-890): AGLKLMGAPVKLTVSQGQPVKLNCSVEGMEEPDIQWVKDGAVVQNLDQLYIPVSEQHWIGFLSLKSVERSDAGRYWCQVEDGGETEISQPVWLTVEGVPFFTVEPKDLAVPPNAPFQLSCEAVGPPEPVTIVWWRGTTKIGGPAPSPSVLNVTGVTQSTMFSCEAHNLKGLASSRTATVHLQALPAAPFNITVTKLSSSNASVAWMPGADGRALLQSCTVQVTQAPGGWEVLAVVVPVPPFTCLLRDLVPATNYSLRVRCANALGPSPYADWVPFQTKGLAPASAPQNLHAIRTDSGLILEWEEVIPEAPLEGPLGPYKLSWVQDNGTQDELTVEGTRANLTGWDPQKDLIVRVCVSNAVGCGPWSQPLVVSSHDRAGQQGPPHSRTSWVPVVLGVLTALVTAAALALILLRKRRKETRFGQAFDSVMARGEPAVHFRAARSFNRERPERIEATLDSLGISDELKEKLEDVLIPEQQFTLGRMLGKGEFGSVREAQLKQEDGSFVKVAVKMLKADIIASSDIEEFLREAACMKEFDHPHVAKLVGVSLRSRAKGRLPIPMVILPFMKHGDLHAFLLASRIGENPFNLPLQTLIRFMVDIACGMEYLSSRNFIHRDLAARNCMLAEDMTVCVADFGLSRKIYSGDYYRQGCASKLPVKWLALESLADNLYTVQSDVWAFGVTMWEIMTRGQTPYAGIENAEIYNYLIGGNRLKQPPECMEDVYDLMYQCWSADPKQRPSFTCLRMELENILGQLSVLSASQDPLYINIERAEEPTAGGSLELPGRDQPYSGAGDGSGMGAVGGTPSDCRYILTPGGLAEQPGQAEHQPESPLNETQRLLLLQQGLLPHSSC
The method in brief:
as §1

The next assay has as its target T5, INSR (Homo sapiens, UniProt P06213).
T5 construct: purchased Thermo Fisher Scientific
The method in brief: as §1

A further assay deals with T6, NEK6 (Homo sapiens, UniProt Q9HC98).
T6 construct: purchased Thermo Fisher Scientific
T6 sequence (Q9HC98 whole entry): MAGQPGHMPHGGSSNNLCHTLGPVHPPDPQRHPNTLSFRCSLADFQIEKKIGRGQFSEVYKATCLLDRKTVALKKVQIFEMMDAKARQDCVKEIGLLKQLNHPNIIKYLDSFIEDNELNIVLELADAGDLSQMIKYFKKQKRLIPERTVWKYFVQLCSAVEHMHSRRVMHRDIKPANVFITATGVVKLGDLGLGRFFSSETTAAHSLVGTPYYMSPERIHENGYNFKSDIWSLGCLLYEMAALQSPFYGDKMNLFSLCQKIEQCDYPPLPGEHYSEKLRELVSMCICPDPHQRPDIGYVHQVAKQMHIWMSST
The method in brief:
as §1

For a further assay, the target named is T7, NTRK2 (TRKB) (Homo sapiens, UniProt Q16620).
T7 construct: purchased Thermo Fisher Scientific
T7 sequence (Q16620 32-822): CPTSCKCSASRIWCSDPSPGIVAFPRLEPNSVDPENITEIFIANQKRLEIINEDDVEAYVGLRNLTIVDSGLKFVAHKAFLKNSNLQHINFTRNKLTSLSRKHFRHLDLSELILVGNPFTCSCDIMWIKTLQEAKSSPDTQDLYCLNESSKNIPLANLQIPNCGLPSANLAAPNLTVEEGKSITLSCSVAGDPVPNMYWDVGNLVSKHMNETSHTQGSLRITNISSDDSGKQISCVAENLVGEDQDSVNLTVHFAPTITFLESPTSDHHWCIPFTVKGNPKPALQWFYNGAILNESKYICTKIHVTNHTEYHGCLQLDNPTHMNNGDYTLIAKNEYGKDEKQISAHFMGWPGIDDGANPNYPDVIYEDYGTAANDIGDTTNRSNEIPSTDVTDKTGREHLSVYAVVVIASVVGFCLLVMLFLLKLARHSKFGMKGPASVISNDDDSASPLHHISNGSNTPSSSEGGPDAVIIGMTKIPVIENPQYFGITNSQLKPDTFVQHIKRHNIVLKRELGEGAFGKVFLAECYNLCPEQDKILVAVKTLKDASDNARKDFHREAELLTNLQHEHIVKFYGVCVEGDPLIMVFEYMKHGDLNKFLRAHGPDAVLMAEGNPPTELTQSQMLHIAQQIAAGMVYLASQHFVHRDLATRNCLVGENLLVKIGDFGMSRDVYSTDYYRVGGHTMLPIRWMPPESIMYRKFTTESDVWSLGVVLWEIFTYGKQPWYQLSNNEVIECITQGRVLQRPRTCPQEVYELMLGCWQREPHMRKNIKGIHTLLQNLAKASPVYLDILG
In outline: as §1

T5 sequence (P06213 28-1382): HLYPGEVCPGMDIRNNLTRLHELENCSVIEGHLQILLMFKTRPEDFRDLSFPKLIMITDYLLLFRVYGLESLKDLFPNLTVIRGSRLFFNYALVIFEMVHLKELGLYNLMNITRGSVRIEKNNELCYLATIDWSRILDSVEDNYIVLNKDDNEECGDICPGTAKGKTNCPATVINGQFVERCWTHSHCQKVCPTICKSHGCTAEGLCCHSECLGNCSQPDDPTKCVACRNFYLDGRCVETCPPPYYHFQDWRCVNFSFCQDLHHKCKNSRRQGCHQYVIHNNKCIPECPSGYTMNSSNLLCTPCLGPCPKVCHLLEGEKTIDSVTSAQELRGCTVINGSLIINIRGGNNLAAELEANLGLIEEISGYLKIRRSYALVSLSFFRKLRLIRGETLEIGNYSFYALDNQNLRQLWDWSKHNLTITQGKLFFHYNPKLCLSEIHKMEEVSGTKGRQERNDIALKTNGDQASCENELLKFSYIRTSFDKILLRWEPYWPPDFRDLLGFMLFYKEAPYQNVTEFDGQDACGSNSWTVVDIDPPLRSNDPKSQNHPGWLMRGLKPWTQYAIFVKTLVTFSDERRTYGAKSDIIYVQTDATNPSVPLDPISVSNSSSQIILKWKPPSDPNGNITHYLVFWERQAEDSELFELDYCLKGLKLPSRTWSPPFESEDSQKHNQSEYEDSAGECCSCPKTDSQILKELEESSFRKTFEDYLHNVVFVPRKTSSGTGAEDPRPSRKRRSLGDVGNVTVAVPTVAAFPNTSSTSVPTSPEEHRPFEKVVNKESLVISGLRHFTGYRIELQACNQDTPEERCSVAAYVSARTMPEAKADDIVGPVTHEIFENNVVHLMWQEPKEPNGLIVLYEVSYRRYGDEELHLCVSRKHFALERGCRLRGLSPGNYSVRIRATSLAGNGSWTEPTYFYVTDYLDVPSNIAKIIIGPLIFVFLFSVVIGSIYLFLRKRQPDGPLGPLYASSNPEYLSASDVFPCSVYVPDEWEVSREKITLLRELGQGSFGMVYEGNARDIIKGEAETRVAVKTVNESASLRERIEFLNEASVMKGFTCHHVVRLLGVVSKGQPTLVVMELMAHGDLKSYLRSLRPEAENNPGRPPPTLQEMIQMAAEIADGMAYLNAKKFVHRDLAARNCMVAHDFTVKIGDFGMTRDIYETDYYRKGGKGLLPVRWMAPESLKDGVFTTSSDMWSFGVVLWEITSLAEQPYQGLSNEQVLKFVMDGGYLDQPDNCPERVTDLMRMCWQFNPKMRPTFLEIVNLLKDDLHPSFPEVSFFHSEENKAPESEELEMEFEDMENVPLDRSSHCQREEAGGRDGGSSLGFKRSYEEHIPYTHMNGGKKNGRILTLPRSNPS

With `COc1ccc2c(c1OC)c(=O)n1c3ccc(O)cc3c3ccnc2c31` [MW01, 5-Hydroxy-10,11-dimethoxy-9H-benzo[c]indolo[3,2,1-ij][1,5]naphthyridin-9-one], the inhibition at 1 µM at PRKCE (PKC epsilon) was 9%; at PRKCA (PKC alpha), 11%; at DAPK3 (ZIPK), 2%; at TYRO3 (RSE) it was 11%; at INSR, 1%; on NEK6, 4%. Also, at NTRK2 (TRKB), the inhibition at 1 µM worked out at 35%. Moreover, the inhibition at 10 µM on PRKCE (PKC epsilon) was 8%; at PRKCA (PKC alpha), 18%; at DAPK3 (ZIPK), 9%; at TYRO3 (RSE), 29%; on INSR it was 11%; on NEK6 it was -4%. The inhibition at 10 µM on NTRK2 (TRKB) came out at 68%.
As to `COc1ccc2cc3c(N)nn(C(=O)c4cccc(N(C)C)c4)c3nc2c1` [MW05, (3-Amino-7-methoxypyrazolo[3,4-b]quinolin-1-yl)-[3-(dimethylamino)phenyl]methanone], the inhibition at 1 µM on PRKCE (PKC epsilon) was 6%; on PRKCA (PKC alpha) it was 4%; at DAPK3 (ZIPK) it was 2%; on TYRO3 (RSE), 7%; on INSR, 8%; at NEK6, 1%. Besides, the inhibition at 1 µM on NTRK2 (TRKB) turned out to be 13%. For the same molecule, the inhibition at 10 µM on PRKCE (PKC epsilon) is -12%; at PRKCA (PKC alpha) it was -1%; on DAPK3 (ZIPK), -3%; on TYRO3 (RSE) it was 2%; on INSR, -7%; at NEK6, -4%. The inhibition at 10 µM at NTRK2 (TRKB) came to 42%.
